Measured values taken from patent US20020137929A1, “1 - (3-heterocyclylphenyl) isothiourea, -isourea, -guanidine and -amidine herbicidal agents” (Intellectual Property Department, BASF Aktiengesellschaft, priority 1998, published 2002).

What was measured:
AMBEL (Ragweed, Common) = assay: Postemergence herbicidal evaluation; format: in vivo, Ambrosia artemisifolia; settings: postemergence
Summary of the method: (§1)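 Seedlings grown about two weeks were sprayed at 40 psi with compound dispersed in 50/50 acetone/water plus 0.5% TWEEN 20, at about 0.0156 to 0.500 kg/ha. Plants were kept in the greenhouse and scored 4–5 weeks later on a 0–9 visual scale against untreated controls.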

CASOB (Sicklepod) [1] = assay: Postemergence herbicidal evaluation; format: in vivo, Cassia obtusifolia; settings: postemergence
Summary of the method: as §1

GALAP (Galium) = assay: Postemergence herbicidal evaluation; format: in vivo, Galium aparine; settings: postemergence
Summary of the method: as §1

[2] = test system: IPOHE (Morningglory, Ivyleaf); assay: Postemergence herbicidal evaluation; format: in vivo, Ipomoea hederacea; settings: postemergence
Summary of the method: as §1

ABUTH (Velvetleaf) = assay: Preemergence herbicidal evaluation; format: in vivo, Abutilon theophrasti; settings: rated 4-5 weeks after treatment, rating scale 0-9
Summary of the method: (§2)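 Each species is sown separately in potting soil over roughly an inch of soil before any emergence. The soil surface then receives an aqueous acetone spray delivering about 0.0156 to 0.500 kg/ha of compound. After four to five weeks, injury is scored from 0 to 9 relative to a control.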

CASOB (Sicklepod) [3] = assay: Preemergence herbicidal evaluation; format: in vivo, Cassia obtusifolia; settings: rated 4-5 weeks after treatment, rating scale 0-9
Summary of the method: as §2

[4] = test system: IPOHE (Morningglory, Ivyleaf); assay: Preemergence herbicidal evaluation; format: in vivo, Ipomoea hederacea; settings: rated 4-5 weeks after treatment, rating scale 0-9
Summary of the method: as §2

ECHCG (Barnyardgrass) = assay: Preemergence herbicidal evaluation; format: in vivo, Echinochloa crus-galli; settings: rated 4-5 weeks after treatment, rating scale 0-9
Summary of the method: as §2

[5] = test system: GLXMAW (Soybean, Williams); assay: Preemergence herbicidal evaluation; format: in vivo, Glycine max, (L.) Merr. cv Williams; settings: rated 4-5 weeks after treatment, rating scale 0-9
Summary of the method: as §2

[6] = test system: TRZAWR (Wheat, Winter, cv Riband); assay: Preemergence herbicidal evaluation; format: in vivo, Triticum aestivum; settings: rated 4-5 weeks after treatment, rating scale 0-9
Summary of the method: as §2

ZEAMX (Corn, Field) = assay: Preemergence herbicidal evaluation; format: in vivo, Zea mays; settings: rated 4-5 weeks after treatment, rating scale 0-9
Summary of the method: as §2

MOOVA (Monochoria) = assay: Preemergence weed control under flooded paddy conditions; format: in vivo, Monochoria vaginalis; settings: rated 3-4 weeks after treatment
Summary of the method: (§3)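 First, seeds or propagules go into the top 0.5 cm of silt loam; next, water is held 1.5 to 3 cm over the soil; then compound (50/50 acetone/water) is pipetted into it at about 0.0313 to 0.500 kg/ha; finally plants are rated visually 0-9 after three to four weeks.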

[7] = test system: SAGPY (Arrowhead (Pygmaea)); assay: as above; format: in vivo, Sagittaria pygmaea; settings: rated 3-4 weeks after treatment
Summary of the method: as §3

Structure (SMILES): Cn1c(C(F)(F)F)cc(=O)n(-c2cc(N=C3SCC(=O)N3Cc3ccc(Br)cc3)c(Cl)cc2F)c1=O [Compound 148, 3-{5-{[3-(p-Bromobenzyl)-4-oxo-2-thiazolidinyl-idene]amino}-4-chloro-2-fluorophenyl}-1-methyl-6-(trifluoromethyl)-2,4(1H,3H)-pyrimidinedione]
- herbicidal rating AMBEL (AMBEL (Ragweed, Common); rate 0.0156 kg/ha): 9.0
- herbicidal rating AMBEL (AMBEL (Ragweed, Common); rate 0.0313 kg/ha): 7.0
- herbicidal rating AMBEL (AMBEL (Ragweed, Common); rate 0.0625 kg/ha): 9.0
- herbicidal rating CASOB (CASOB (Sicklepod) [1]; rate 0.0156 kg/ha): 3.0
- herbicidal rating CASOB (CASOB (Sicklepod) [1]; rate 0.0313 kg/ha): 3.0
- herbicidal rating CASOB (CASOB (Sicklepod) [1]; rate 0.0625 kg/ha): 3.0
- herbicidal rating GALAP (GALAP (Galium); rate 0.0156 kg/ha): 2.0
- herbicidal rating GALAP (GALAP (Galium); rate 0.0313 kg/ha): 2.0
- herbicidal rating GALAP (GALAP (Galium); rate 0.0625 kg/ha): 2.0
- herbicidal rating IPOHE ([2]; rate 0.0156 kg/ha): 9.0
- herbicidal rating IPOHE ([2]; rate 0.0313 kg/ha): 9.0
- herbicidal rating IPOHE ([2]; rate 0.0625 kg/ha): 9.0
- Preemergence herbicidal rating ABUTH (ABUTH (Velvetleaf); rate 0.0313 kg/ha): 0.0
- Preemergence herbicidal rating ABUTH (ABUTH (Velvetleaf); rate 0.0625 kg/ha): 1.0
- Preemergence herbicidal rating ABUTH (ABUTH (Velvetleaf); rate 0.1250 kg/ha): 4.0
- Preemergence herbicidal rating ABUTH (ABUTH (Velvetleaf); rate 0.2500 kg/ha): 4.0
- Preemergence herbicidal rating CASOB (CASOB (Sicklepod) [3]; rate 0.0313 kg/ha): 0.0
- Preemergence herbicidal rating CASOB (CASOB (Sicklepod) [3]; rate 0.0625 kg/ha): 0.0
- Preemergence herbicidal rating CASOB (CASOB (Sicklepod) [3]; rate 0.1250 kg/ha): 0.0
- Preemergence herbicidal rating CASOB (CASOB (Sicklepod) [3]; rate 0.2500 kg/ha): 0.0
- Preemergence herbicidal rating IPOHE ([4]; rate 0.0313 kg/ha): 0.0
- Preemergence herbicidal rating IPOHE ([4]; rate 0.0625 kg/ha): 0.0
- Preemergence herbicidal rating IPOHE ([4]; rate 0.1250 kg/ha): 0.0
- Preemergence herbicidal rating IPOHE ([4]; rate 0.2500 kg/ha): 0.0
- Preemergence herbicidal rating ECHCG (ECHCG (Barnyardgrass); rate 0.0313 kg/ha): 0.0
- Preemergence herbicidal rating ECHCG (ECHCG (Barnyardgrass); rate 0.0625 kg/ha): 0.0
- Preemergence herbicidal rating ECHCG (ECHCG (Barnyardgrass); rate 0.1250 kg/ha): 0.0
- Preemergence herbicidal rating ECHCG (ECHCG (Barnyardgrass); rate 0.2500 kg/ha): 0.0
- Preemergence herbicidal rating GLXMAW ([5]; rate 0.0313 kg/ha): 0.0
- Preemergence herbicidal rating GLXMAW ([5]; rate 0.0625 kg/ha): 0.0
- Preemergence herbicidal rating GLXMAW ([5]; rate 0.1250 kg/ha): 0.0
- Preemergence herbicidal rating GLXMAW ([5]; rate 0.2500 kg/ha): 0.0
- Preemergence herbicidal rating TRZAWR ([6]; rate 0.0313 kg/ha): 0.0
- Preemergence herbicidal rating TRZAWR ([6]; rate 0.0625 kg/ha): 0.0
- Preemergence herbicidal rating TRZAWR ([6]; rate 0.1250 kg/ha): 0.0
- Preemergence herbicidal rating TRZAWR ([6]; rate 0.2500 kg/ha): 0.0
- Preemergence herbicidal rating ZEAMX (ZEAMX (Corn, Field); rate 0.0313 kg/ha): 0.0
- Preemergence herbicidal rating ZEAMX (ZEAMX (Corn, Field); rate 0.0625 kg/ha): 0.0
- Preemergence herbicidal rating ZEAMX (ZEAMX (Corn, Field); rate 0.1250 kg/ha): 0.0
- Preemergence herbicidal rating ZEAMX (ZEAMX (Corn, Field); rate 0.2500 kg/ha): 1.0
- herbicidal effect rating, MOOVA (MOOVA (Monochoria); 0.0313 kg/ha): 7.0
- herbicidal effect rating, MOOVA (MOOVA (Monochoria); 0.0625 kg/ha): 7.0
- herbicidal effect rating, MOOVA (MOOVA (Monochoria); 0.1250 kg/ha): 9.0
- herbicidal effect rating, MOOVA (MOOVA (Monochoria); 0.2500 kg/ha): 9.0
- herbicidal effect rating, SAGPY ([7]; 0.0313 kg/ha): 0.0
- herbicidal effect rating, SAGPY ([7]; 0.0625 kg/ha): 3.0
- herbicidal effect rating, SAGPY ([7]; 0.1250 kg/ha): 4.0
- herbicidal effect rating, SAGPY ([7]; 0.2500 kg/ha): 4.0
